Series [1] deals with T1, PDE4A (Homo sapiens, UniProt P27815).
T1 construct: purchased MDS PHARMA
Description: PDE4A inhibition, IMAP fluorescence polarization protocol. Format: biochemical. The settings on record: 1 μM; mean ± SEM, 3 experiments. As for the experimental part:
(§1) The enzymatic reactions were carried at room temperature in a 96-well black plate by co-incubating 25 μL of 200 nM FAM-cAMP (R7513), 5 μL of putative inhibitory compounds and 20 μL of the PDE4 isoform dissolved in assay buffer (R7364) for 1 h. All enzymes were obtained from human recombinant sources (MDS PHARMA), whereas the other reagents were purchased from Molecular Devices. […] PDE4 inhibitors were dissolved in dimethyl sulfoxide (DMSO) at a final concentration of 0.1%.
(§2) The inhibitory activities of the new sulfonamide derivatives were evaluated for their selectivity against the four isoforms of human PDE4, i.e. PDE4A, PDE4B, PDE4C, and PDE4D, using an IMAP-FP protocol.
(In fluorescence polarisation assays a small probe gives low polarisation when free and higher when bound to something large.)

Series [2] addresses T2, PDE4B (Homo sapiens, UniProt Q07343).
T2 construct: purchased MDS PHARMA
Description: PDE4B inhibition, IMAP fluorescence polarization protocol. The settings on record: 1 μM, mean ± SEM, 3 experiments; for inhibition at 1 µM: read-out: PDE4B1 inhibition. The series is classed as biochemical. Here is the method: as §1, §2

Series [3] deals with T3, PDE4C (Homo sapiens, UniProt Q08493).
T3 construct: purchased MDS PHARMA
T3 sequence (Q08493 whole entry): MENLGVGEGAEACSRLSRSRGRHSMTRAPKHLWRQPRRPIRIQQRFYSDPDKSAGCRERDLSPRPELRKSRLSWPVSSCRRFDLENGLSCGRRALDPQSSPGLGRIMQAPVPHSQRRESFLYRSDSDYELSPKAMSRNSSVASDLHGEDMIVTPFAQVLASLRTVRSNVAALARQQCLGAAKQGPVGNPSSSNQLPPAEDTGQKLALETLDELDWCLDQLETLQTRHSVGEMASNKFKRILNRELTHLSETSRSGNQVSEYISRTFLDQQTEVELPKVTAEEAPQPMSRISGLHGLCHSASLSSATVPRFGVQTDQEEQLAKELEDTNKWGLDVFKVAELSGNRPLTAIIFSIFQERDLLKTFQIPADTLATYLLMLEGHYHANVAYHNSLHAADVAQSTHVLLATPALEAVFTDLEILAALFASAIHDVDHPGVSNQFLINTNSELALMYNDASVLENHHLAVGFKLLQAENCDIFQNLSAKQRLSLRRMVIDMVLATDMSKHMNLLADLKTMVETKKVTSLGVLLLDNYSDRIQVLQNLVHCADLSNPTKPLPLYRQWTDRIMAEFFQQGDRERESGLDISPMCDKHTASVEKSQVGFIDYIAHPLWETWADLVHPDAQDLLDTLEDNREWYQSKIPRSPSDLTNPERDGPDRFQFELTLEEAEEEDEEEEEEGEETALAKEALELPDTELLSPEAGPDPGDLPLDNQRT
Put plainly: PDE4C inhibition, IMAP fluorescence polarization protocol. The series is classed as biochemical. The settings on record: 1 μM; mean ± SEM, 3 experiments. Here is the method:
as §1, §2

Series [4] addresses T4, PDE4D (Homo sapiens, UniProt Q08499).
T4 construct: purchased MDS PHARMA
Put plainly: PDE4D inhibition, IMAP fluorescence polarization protocol. The settings on record: 1 μM, mean ± SEM, 3 experiments; for inhibition at 1 µM: read-out: PDE4D3 inhibition. The series is classed as biochemical. Here is the method:
as §1, §2

Each structure is given as a SMILES string.

T2 sequence (Q07343 whole entry): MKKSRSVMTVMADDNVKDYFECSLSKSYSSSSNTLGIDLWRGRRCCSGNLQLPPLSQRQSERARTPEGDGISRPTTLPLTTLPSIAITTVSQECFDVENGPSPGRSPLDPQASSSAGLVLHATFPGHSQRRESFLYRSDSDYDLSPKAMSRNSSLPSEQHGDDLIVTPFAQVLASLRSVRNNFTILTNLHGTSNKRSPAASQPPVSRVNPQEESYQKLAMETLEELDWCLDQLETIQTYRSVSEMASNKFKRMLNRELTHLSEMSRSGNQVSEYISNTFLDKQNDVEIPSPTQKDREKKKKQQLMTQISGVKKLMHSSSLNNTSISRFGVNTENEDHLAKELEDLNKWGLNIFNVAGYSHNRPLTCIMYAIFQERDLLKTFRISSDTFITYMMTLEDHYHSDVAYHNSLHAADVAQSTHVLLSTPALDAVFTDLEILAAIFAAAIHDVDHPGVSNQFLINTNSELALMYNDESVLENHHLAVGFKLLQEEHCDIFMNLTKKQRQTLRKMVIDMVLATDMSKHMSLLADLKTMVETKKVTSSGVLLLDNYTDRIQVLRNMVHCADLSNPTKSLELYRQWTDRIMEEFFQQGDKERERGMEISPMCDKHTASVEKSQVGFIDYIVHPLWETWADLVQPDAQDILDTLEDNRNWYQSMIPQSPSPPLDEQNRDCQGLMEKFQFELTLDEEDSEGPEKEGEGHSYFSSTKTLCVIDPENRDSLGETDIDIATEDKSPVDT
T1 sequence (P27815 1-647 isoform P27815-4): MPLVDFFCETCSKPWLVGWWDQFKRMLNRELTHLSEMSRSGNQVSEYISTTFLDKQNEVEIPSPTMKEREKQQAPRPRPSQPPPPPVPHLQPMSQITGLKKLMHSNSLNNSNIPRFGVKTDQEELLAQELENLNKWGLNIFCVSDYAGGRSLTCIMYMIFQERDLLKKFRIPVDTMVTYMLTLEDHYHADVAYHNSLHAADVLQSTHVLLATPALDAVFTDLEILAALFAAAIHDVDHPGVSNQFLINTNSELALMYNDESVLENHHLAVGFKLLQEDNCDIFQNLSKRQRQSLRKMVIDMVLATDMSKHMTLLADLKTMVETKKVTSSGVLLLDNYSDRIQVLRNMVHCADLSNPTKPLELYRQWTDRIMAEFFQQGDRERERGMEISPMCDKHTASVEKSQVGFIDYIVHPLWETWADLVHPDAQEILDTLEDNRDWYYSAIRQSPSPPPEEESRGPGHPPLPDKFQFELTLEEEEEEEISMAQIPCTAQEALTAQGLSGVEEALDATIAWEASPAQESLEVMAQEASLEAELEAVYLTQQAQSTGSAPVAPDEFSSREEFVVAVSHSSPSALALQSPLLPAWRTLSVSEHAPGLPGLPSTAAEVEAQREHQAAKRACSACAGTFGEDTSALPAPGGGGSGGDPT
T4 sequence (Q08499 1-673 isoform Q08499-2): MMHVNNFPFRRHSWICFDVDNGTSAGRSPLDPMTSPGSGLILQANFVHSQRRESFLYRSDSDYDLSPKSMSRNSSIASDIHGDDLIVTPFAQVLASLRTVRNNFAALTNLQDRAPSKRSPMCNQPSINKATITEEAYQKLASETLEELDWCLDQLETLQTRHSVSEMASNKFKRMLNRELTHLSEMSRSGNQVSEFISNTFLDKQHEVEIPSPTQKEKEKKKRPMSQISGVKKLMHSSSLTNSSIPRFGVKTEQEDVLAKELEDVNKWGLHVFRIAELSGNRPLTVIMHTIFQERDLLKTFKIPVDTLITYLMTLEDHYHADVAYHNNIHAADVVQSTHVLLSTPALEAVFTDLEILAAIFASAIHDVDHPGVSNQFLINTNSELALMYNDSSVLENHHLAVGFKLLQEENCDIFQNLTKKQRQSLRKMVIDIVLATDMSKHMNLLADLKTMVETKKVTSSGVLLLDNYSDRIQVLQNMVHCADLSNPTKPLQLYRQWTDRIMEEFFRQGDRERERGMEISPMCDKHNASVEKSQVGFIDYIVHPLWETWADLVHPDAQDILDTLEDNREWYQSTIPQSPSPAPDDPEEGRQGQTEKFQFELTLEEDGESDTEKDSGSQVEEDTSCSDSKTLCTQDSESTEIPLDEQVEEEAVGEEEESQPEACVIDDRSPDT

In the case of `COc1ccc(CCNS(C)(=O)=O)cc1OC` [6j (LASSBio-985), N-(3,4-dimethoxyphenethyl)methanesulfonamide], the melting point lay in the range of 73 to 74 °C. Moreover, the PDE4A1A inhibition entry in series [1] is reported as “Inactive”. In addition, the inhibition at 1 µM in series [2] was found to be 12.6 ± 2.1%. This compound came in with an inhibition at 1 µM in series [3] of 16.3 ± 1%. Further, in series [4], the PDE4D3 inhibition entry is on record as “only a marginal activity” and the inhibition at 1 µM came to 62.9 ± 3.8%.

Turning to `COc1ccc(CCN(C)S(=O)(=O)c2cc3c(cc2C)OCO3)cc1OC` [6b (LASSBio-959), N-(3,4-dimethoxyphenethyl)-N-6-dimethylbenzo[d][1, 3]dioxole-5-sulfonamide], the melting point is 92 to 94 °C. Besides, in series [1], the PDE4A1A inhibition entry is on record as “Inactive”. For the same compound, in series [2], the PDE4B1 inhibition entry is listed as “Inactive”. Besides, in series [3], the inhibition at 1 µM was 5.6 ± 1%. In series [4], the PDE4D3 inhibition result is on record as “only a marginal activity” and the inhibition at 1 µM was 42.4 ± 3.5%.

Take `COc1ccc(CCNS(=O)(=O)c2ccccc2)cc1OC` [6f (LASSBio-965), N-(3,4-dimethoxyphenethyl)benzenesulfonamide]: the melting point was 86 to 88 °C. Moreover, the PDE4A1A inhibition entry in series [1] is on record as “Inactive”. Also, the PDE4B1 inhibition entry in series [2] is “Inactive”. The inhibition at 1 µM in series [3] was determined as 9.7 ± 3.3%. Besides, in series [4], the inhibition at 1 µM was determined as 19.3 ± 4%.

For `COc1ccc(CCN(C2CCCC2)S(=O)(=O)c2cc3c(cc2C)OCO3)cc1OC` [6e (LASSBio-962), N-(3,4-dimethoxyphenethyl)-N-cyclopentyl-6-methylbenzo[d][1, 3]dioxole-5-sulfonamide], the PDE4A1A inhibition entry in series [1] is on record as “Inactive”. Further, in series [2], the PDE4B1 inhibition result is “Inactive”. Also, the inhibition at 1 µM in series [3] was 7.6 ± 1.1%; in series [4], 23.6 ± 2.2%.

Consider `Cc1cc2c(cc1S(=O)(=O)NCCc1ccccc1)OCO2` [5 (LASSBio-964), 6-methyl-N-phenethylbenzo[d][1, 3]dioxole-5-sulfonamide], for which the melting point lay within 88 to 89 °C. Also, the PDE4A1A inhibition result in series [1] is “Inactive”. Further, the PDE4B1 inhibition result in series [2] is “Inactive”. In series [3], this compound had an inhibition at 1 µM of 3.9 ± 2.9%. In series [4], the PDE4D3 inhibition result was “only a marginal activity” and the inhibition at 1 µM was determined as 33.5 ± 4.5%.

As to `COc1ccc(CCN(Cc2ccccc2)S(=O)(=O)c2ccccc2)cc1OC` [6h (LASSBio-984), N-(3,4-dimethoxyphenethyl)-N-benzylbenzenesulfonamide], the melting point fell in the range of 82 to 84 °C. Besides, the PDE4A1A inhibition entry in series [1] was “Inactive”. Further, in series [2], the inhibition at 1 µM worked out at 5 ± 0.6%. In addition, in series [3], 1 µM produced 9.8 ± 1.7% inhibition. The inhibition at 1 µM in series [4] came to 14.3 ± 5.4%.

With `COc1ccc(CCN(C)S(=O)(=O)c2ccccc2)cc1OC` [6g (LASSBio-982), N-(3,4-dimethoxyphenethyl)-N-methylbenzenesulfonamide], the melting point fell in the range of 67 to 68 °C. Moreover, the PDE4A1A inhibition result in series [1] was “Inactive”. The PDE4B1 inhibition result in series [2] is listed as “Inactive”. Moreover, the inhibition at 1 µM in series [3] was found to be 4.1%. Also, in series [4], the PDE4D3 inhibition entry is recorded as “only a marginal activity” and the inhibition at 1 µM is 37.4 ± 3.9%.

With `C=CCN(CCc1ccc(OC)c(OC)c1)S(=O)(=O)c1cc2c(cc1C)OCO2` [6d (LASSBio-961), N-(3,4-dimethoxyphenethyl)-N-allyl-6-methylbenzo[d][1, 3]dioxole-5-sulfonamide], the melting point was 74 to 76 °C. In addition, the PDE4A1A inhibition entry in series [1] was “Inactive”. In addition, the PDE4B1 inhibition result in series [2] is “Inactive”. In addition, the inhibition at 1 µM in series [3] is 6.3 ± 4.1%. For the same compound, in series [4], the PDE4D3 inhibition entry was “only a marginal activity” and the inhibition at 1 µM was found to be 40.4 ± 4.5%.

With `COc1ccc(CCN(C)S(C)(=O)=O)cc1OC` [6k (LASSBio-1271), N-(3,4-dimethoxyphenethyl)-N-methylmethanesulfonamide], the melting point is 48 to 49 °C. In addition, the PDE4A1A inhibition entry in series [1] is “Inactive”. The PDE4B1 inhibition entry in series [2] is “Inactive”. Further, the PDE4C inhibition entry in series [3] is “Inactive”. For the same compound, the PDE4D3 inhibition entry in series [4] is on record as “Inactive”.

`C=CCN(CCc1ccc(OC)c(OC)c1)S(=O)(=O)c1ccccc1` [6i (LASSBio-983), N-(3,4-dimethoxyphenethyl)-N-allylbenzenesulfonamide] yielded a melting point of 64 to 65 °C. In series [1], the PDE4A1A inhibition entry is recorded as “Inactive”. Moreover, the PDE4B1 inhibition entry in series [2] is on record as “Inactive”. The compound also showed an inhibition at 1 µM in series [3] of 9.7 ± 0.8%. Moreover, in series [4], the PDE4D3 inhibition result is “only a marginal activity” and the inhibition at 1 µM was 67.6 ± 2.6%.

On to `COc1ccc(CCN(Cc2ccccc2)S(=O)(=O)c2cc3c(cc2C)OCO3)cc1OC` [6c (LASSBio-960), N-(3,4-dimethoxyphenethyl)-N-benzyl-6-methylbenzo[d][1, 3]dioxole-5-sulfonamide], for which the melting point is 119 to 121 °C. Besides, the PDE4A1A inhibition entry in series [1] was “Inactive”. The PDE4B1 inhibition result in series [2] is given as “Inactive”. The compound further gave an inhibition at 1 µM in series [3] of 2 ± 0.8%. Further, the inhibition at 1 µM in series [4] was found to be 21.6 ± 4.5%.

In general, inhibition refers to the relative decrease from the control value, in per cent. One may read the melting point as the temperature, or range, at which the solid turns liquid.

For the origin of these results see PMC5047629, “Synthesis, Pharmacological Profile and Docking Studies of New Sulfonamides Designed as Phosphodiesterase-4 Inhibitors” (PLoS ONE, 2016).
